Test results taken from US8835466B2, “Synthesis and uses of pyroglutamic acid derivatives” (Prodimed, S.A., priority 2006, dated 2014).

Columns and labels:
[1] = system: Renca cells (renal cell carcinoma); assay: Effect of isomers on in vivo tumour growth in mice challenged with Renca cells (Example 7); set-up: species or system Balb/c mice; settings: for Tumour surface, overall values (Mean) / Tumour surface, overall values (Median) / Tumour volume, overall values (Mean) / Tumour volume, overall values (Median): 260 ng/mouse i.p. days 6, 7, 14
Source text: This assay was made in order to check the effect of each stereoisomer on in vivo tumour growth in mice challenged with Renca cells. Their effect was compared with placebo. The stereoisomers assayed were:
Renca is a renal cell carcinoma originated in Balb/c mouse strain, and therefore syngeneic in mice with Balb/c genetic background [Melder R J et al., Cancer Immunol. Immunother., 2005, 54:535-547; Felluga B et al., 1969, J. Natl. Cancer Inst. 43:319-333]. Renca is considered a moderate immunogenic tumour and used as suitable model for testing immunointervention approaches [Salup R R, et al., 1992, The Journal of Urology, 147:1120-1123].
(§1) Renca cells (CLS, Eppelheim, Germany) were maintained in vitro by serial passages every 3-4 days. Cultures were performed with RPMI medium medium (RPMI, 10% foetal calf serum, 2 mM L-glutamine, non essential amino acids, 1 mM sodium pyruvate, 20 mM HEPES, 80 μg/mL gentamycin; all of them were purchased from Sigma, St. Louis, Mo., USA) by seeding 5×10^6 cells onto 75 cm^2 culture flasks. Tumour cells collected from 48 hour cultures upon trypsinization (Sigma, St. Louis, Mo., USA) were used as source of Renca cells for the studies described below.
Each isomer was tested at the dose levels of 260 ng administered on days 6, 7 and 14 after tumour inoculation.
The treatments were given by intraperitoneal route (i.p.). The volume inoculated was 0.2 mL/animal. This route was chosen because it is the one described in the original method [Pérez S, et al., 2003, Clinical Cancer Research. 9:5776-5785].
Tumours were established by subcutaneous inoculation in the right hind flank. Mice (Balb/c) were inoculated with 0.2 mL containing 10^5 viable Renca cells. The day of subcutaneous inoculation will be considered Day 0 of the test.
Mice were observed daily and the tumour size recorded twice a week. This was carried out by measuring two perpendicular diameters (L/W) with a calliper. These measures were used to obtain both tumour surface and volume: Tumour surface=L×W(mm^2) Tumour volume=L×W^2×½(mm^3)
(§2) Results were expressed as single values and/or as the mean±SD or median from each experimental group.
(§3) A case-control study was performed with treated and control mice in order to determine whether differences between isomers and administration of placebo were present. […] The U-test of Mann Withney was chosen for being one of the better known non-parametrical tests, anyway, results for this test are equivalent both to those of Wilcoxon's sum of ranges and Kruskal-Wallis two-groups test.
Due to the high dispersion of data, outlayers (animals beyond percentile 25 or above percentile 75 for tumour surface at day 25) were excluded of the study.

[2] = system: ASB XIV cells (pulmonary squamous cell carcinoma); assay: Effect of isomers and BLAS on in vivo tumour growth, ASB XIV tumours (Example 8); set-up: species or system Balb/c mice; settings: for Tumour surface, overall values (Mean) / Tumour surface, overall values (Median) / Tumour volume, overall values (Mean) / Tumour volume, overall values (Median): 260 ng/mouse i.p. days 6, 7 and 14
Source text: This assay was made in order to compare the effect of each stereoisomer on in vivo tumour growth in mice with the effect of the mixture of all of them challenged with ASB XIV tumours. The stereoisomers assayed were the same as in example 7 above plus a mixture of all of them (BLAS). The equipment (when needed), reagents, dose, vehicle and route and volume of administration were the same as in example 7.
ASB XIV is a pulmonary squamous cell carcinoma originated in Balb/c mouse strain, and therefore syngeneic in mice with Balb/c genetic background.
as §1, with “ASB XIV cells” for “Renca cells”, “essential aminoacids,” for “essential amino acids,”, “of ASB XIV” for “of Renca”, “cells in” for “cells for”, “the present example.” for “the studies described below.”
• BLAS (mixture of isomers 1, 2, 3 and 4) at a concentration of 65 μg/mL in sterile physiological saline. Isomer 1 (9b) at a concentration of 65 μg/mL in sterile physiological saline. • Isomer 2 (9c) at a concentration of 65 μg/mL in sterile physiological saline. • Isomer 3 (9a) at a concentration of 65 μg/mL in sterile physiological saline. • Isomer 4 (9d) at a concentration of 65 μg/mL in sterile physiological saline. Placebo
Tumours were established by subcutaneous inoculation in the right hind flank. Mice (Balb/c) were inoculated with 0.2 mL containing 2×10^5 viable ASB XIV cells. The day of subcutaneous inoculation will be considered Day 0 of the test.
Mice were observed daily and the tumour size recorded twice a week. This was carried out by measuring two perpendicular diameters (d1/d2) with a calliper. These measures were used to obtain both tumour surface and volume: Tumour surface=d1×d2(mm^2) Tumour volume=d1×d2^2×½(mm^3)
as §2
as §3, with “BLAS or each diferent stereoisomer” for “isomers”
Due to the high dispersion of data, outlayers (animals beyond percentile 10 or above percentile 90 for tumour surface at day 33) were excluded of the study.

[3] = day 11 after tumour inoculation
[4] = day 14 after tumour inoculation
[5] = day 12 after tumour inoculation
[6] = day 15 after tumour inoculation
[7] = day 19 after tumour inoculation
[8] = day 22 after tumour inoculation
[9] = day 26 after tumour inoculation
[10] = day 29 after tumour inoculation
[11] = day 33 after tumour inoculation

## Br.N[C@]1(C[n+]2ccccc2)C[C@H](C(=O)O)NC1=O.[Br-] (single isomer, unassigned; isomer 4) [isomer 4, 3S,5R-1-(3-Amino-5-carboxy-2-oxopyrrolidin-3-ylmethyl)pyridinium bromide hidrobromide]
[1]; 260 ng i.p. days 6, 7, 14
  Inhibition of the in vivo growth of the renal cell carcinoma (Renca), in words: inhibit the in vivo growth
  Inhibitory effect on Renca tumour growth compared among isomers, in words: highest inhibitory effect
[1]; day 0 after tumour inoculation
  Tumour surface, overall values (Mean): 0 mm^2
  Tumour surface, overall values (Median): 0 mm^2
  Tumour volume, overall values (Mean): 0 mm^3
  Tumour volume, overall values (Median): 0 mm^3
[1]; [3]
  Tumour surface, overall values (Mean): 0 mm^2
  Tumour surface, overall values (Median): 0 mm^2
  Tumour volume, overall values (Mean): 0 mm^3
  Tumour volume, overall values (Median): 0 mm^3
[1]; [4]
  Tumour surface, overall values (Median): 0 mm^2
  Tumour volume, overall values (Median): 0 mm^3
[1]; day 18 after tumour inoculation
  Tumour surface, overall values (Median): 9 mm^2
[1]; either in surface or volume, all days scored after the day 14th
  Differences in Renca tumour growth rate vs. placebo, statistical significance p (Mann-Whitney U test): < 0.01
[2]; 260 ng i.p. days 6, 7 and 14
  Inhibition of the in vivo growth of the lung carcinoma ASB XIV, in words: inhibit the in vivo growth
[2]; day 0 after tumour inoculation
  Tumour surface, overall values (Mean): 0 mm^2
  Tumour surface, overall values (Median): 0 mm^2
  Tumour volume, overall values (Mean): 0 mm^3
  Tumour volume, overall values (Median): 0 mm^3
[2]; day 8 after tumour inoculation
  Tumour surface, overall values (Mean): 0 mm^2
  Tumour surface, overall values (Median): 0 mm^2
  Tumour volume, overall values (Mean): 0 mm^3
  Tumour volume, overall values (Median): 0 mm^3
[2]; [5]
  Tumour surface, overall values (Mean): 0.17 mm^2
  Tumour surface, overall values (Median): 0 mm^2
  Tumour volume, overall values (Mean): 0.16 mm^3
  Tumour volume, overall values (Median): 0 mm^3
[2]; [6]
  Tumour surface, overall values (Mean): 2.79 mm^2
  Tumour surface, overall values (Median): 0 mm^2
  Tumour volume, overall values (Mean): 5.29 mm^3
  Tumour volume, overall values (Median): 0 mm^3
[2]; [7]
  Tumour surface, overall values (Mean): 14.59 mm^2
  Tumour surface, overall values (Median): 9 mm^2
  Tumour volume, overall values (Mean): 36.5 mm^3
[2]; [8]
  Tumour surface, overall values (Mean): 34.52 mm^2
  Tumour volume, overall values (Mean): 118.19 mm^3
[2]; [9]
  Tumour surface, overall values (Mean): 65.86 mm^2
  Tumour surface, overall values (Median): 49 mm^2
  Tumour volume, overall values (Mean): 297.83 mm^3
  Tumour volume, overall values (Median): 171.5 mm^3
[2]; [10]
  Tumour surface, overall values (Mean): 90.28 mm^2
  Tumour surface, overall values (Median): 81 mm^2
  Tumour volume, overall values (Mean): 451.55 mm^3
  Tumour volume, overall values (Median): 364.5 mm^3
[2]; [11]
  Tumour surface, overall values (Mean): 123.45 mm^2
  Tumour surface, overall values (Median): 110 mm^2
  Tumour volume, overall values (Mean): 700.66 mm^3
  Tumour volume, overall values (Median): 550 mm^3
[2]; either in surface or volume, all days scored after the day 26th
  Differences in ASB XIV tumour growth rate vs. placebo, statistical significance p (Mann-Whitney U test): < 0.05

## Br.N[C@@]1(C[n+]2ccccc2)C[C@@H](C(=O)O)NC1=O.[Br-] (single isomer, unassigned; isomer 1) [isomer 1, 3R,5S-1-(3-Amino-5-carboxy-2-oxopyrrolidin-3-ylmethyl)pyridinium bromide hidrobromide]
[1]; day 0 after tumour inoculation
  Tumour surface, overall values (Mean): 0 mm^2
  Tumour surface, overall values (Median): 0 mm^2
  Tumour volume, overall values (Mean): 0 mm^3
  Tumour volume, overall values (Median): 0 mm^3
[1]; [3]
  Tumour surface, overall values (Median): 0 mm^2
  Tumour volume, overall values (Median): 0 mm^3
[2]; day 0 after tumour inoculation
  Tumour surface, overall values (Mean): 0 mm^2
  Tumour surface, overall values (Median): 0 mm^2
  Tumour volume, overall values (Mean): 0 mm^3
  Tumour volume, overall values (Median): 0 mm^3
[2]; day 8 after tumour inoculation
  Tumour surface, overall values (Mean): 0 mm^2
  Tumour surface, overall values (Median): 0 mm^2
  Tumour volume, overall values (Mean): 0 mm^3
  Tumour volume, overall values (Median): 0 mm^3
[2]; [5]
  Tumour surface, overall values (Mean): 0.32 mm^2
  Tumour surface, overall values (Median): 0 mm^2
  Tumour volume, overall values (Mean): 0.45 mm^3
  Tumour volume, overall values (Median): 0 mm^3
[2]; [6]
  Tumour surface, overall values (Mean): 3.45 mm^2
  Tumour surface, overall values (Median): 0 mm^2
  Tumour volume, overall values (Mean): 5.34 mm^3
  Tumour volume, overall values (Median): 0 mm^3
[2]; [7]
  Tumour surface, overall values (Mean): 19.65 mm^2
  Tumour surface, overall values (Median): 16 mm^2
  Tumour volume, overall values (Mean): 53.37 mm^3
  Tumour volume, overall values (Median): 32 mm^3
[2]; [8]
  Tumour surface, overall values (Mean): 46.81 mm^2
  Tumour volume, overall values (Mean): 179.79 mm^3
[2]; [9]
  Tumour surface, overall values (Mean): 92.52 mm^2
  Tumour surface, overall values (Median): 72 mm^2
  Tumour volume, overall values (Mean): 474.10 mm^3
  Tumour volume, overall values (Median): 288 mm^3
[2]; [10]
  Tumour surface, overall values (Mean): 125.16 mm^2
  Tumour surface, overall values (Median): 110 mm^2
  Tumour volume, overall values (Mean): 733.26 mm^3
  Tumour volume, overall values (Median): 550 mm^3
[2]; [11]
  Tumour surface, overall values (Mean): 165.65 mm^2
  Tumour surface, overall values (Median): 154 mm^2
  Tumour volume, overall values (Mean): 1114.37 mm^3
  Tumour volume, overall values (Median): 864 mm^3
